{
  "source": "ChEMBL document CHEMBL5625216",
  "about": "“Design, synthesis, and biological evaluation of 3, 5-disubsituted-1H-pyrazolo[3,4-b]pyridines as multiacting inhibitors against microtubule and kinases” (Eur J Med Chem, 2023)",
  "key": {"in vivo [1]": {"test": "in vivo", "conditions": "ICR, mouse, iv, 5 mg/kg"}, "in vivo [2]": {"test": "in vivo", "conditions": "ICR, mouse, po, 15 mg/kg"}, "in vivo [3]": {"test": "in vivo", "conditions": "ICR, mouse, po, 15 mg/kg", "remark": "listed apart in the source"}, "in vivo [4]": {"test": "in vivo", "conditions": "ICR, mouse, iv, 5 mg/kg", "remark": "listed apart in the source"}, "in vivo [5]": {"test": "in vivo", "conditions": "ICR, mouse, iv, 5 mg/kg", "remark": "listed apart in the source"}, "in vivo [6]": {"test": "in vivo", "conditions": "ICR, mouse, iv, 5 mg/kg", "remark": "listed apart in the source"}, "in vivo [7]": {"test": "in vivo", "conditions": "ICR, mouse, po, 15 mg/kg", "remark": "listed apart in the source"}, "in vivo [8]": {"test": "in vivo", "conditions": "ICR, mouse, po, 15 mg/kg", "remark": "listed apart in the source"}, "in vivo [9]": {"test": "in vivo", "conditions": "ICR, mouse, iv, 5 mg/kg", "remark": "listed apart in the source"}, "in vivo [10]": {"test": "in vivo", "conditions": "ICR, mouse, po, 15 mg/kg", "remark": "listed apart in the source"}, "in vivo [11]": {"test": "in vivo", "conditions": "ICR, mouse, iv, 5 mg/kg", "remark": "listed apart in the source"}},
  "data": [
    {"smiles": "COc1cc(-c2n[nH]c3ncc(-c4ccc(C)c(NCCO)c4)cc23)cc(OC)c1OC", "values": [
      {"measurement": "Cmax at 24 h", "setting": "in vivo [1]", "value": 3850, "unit": "ng/mL"},
      {"measurement": "Cmax at 24 h", "setting": "in vivo [2]", "value": 115, "unit": "ng/mL"},
      {"measurement": "bioavailability at 24 h", "setting": "in vivo [3]", "value": 3.2, "unit": "%"},
      {"measurement": "Vd at 24 h", "setting": "in vivo [4]", "value": 1.3, "unit": "L/kg"},
      {"measurement": "half-life at 24 h", "setting": "in vivo [5]", "value": 78, "unit": "min"},
      {"measurement": "Tmax at 24 h", "setting": "in vivo [6]", "value": 6, "unit": "min"},
      {"measurement": "Tmax at 24 h", "setting": "in vivo [7]", "value": 18, "unit": "min"},
      {"measurement": "half-life at 24 h", "setting": "in vivo [8]", "value": 72, "unit": "min"},
      {"measurement": "clearance at 24 h", "setting": "in vivo [9]", "value": 73.3, "unit": "mL/min/kg"},
      {"measurement": "AUC(0-t) at 24 h", "setting": "in vivo [10]", "value": 110, "unit": "ng·h/mL"},
      {"measurement": "AUC(0-t) at 24 h", "setting": "in vivo [11]", "value": 1150, "unit": "ng·h/mL"}
    ]}
  ]
}
